# Laboratory results as given in patent US20250345370A1, “MICROBIAL LIBERATION OF N-METHYLSEROTONIN FROM ORANGE FIBER” (Washington University, priority 2022, published 2025).
# Legend:
# liver gene expression = assay: RNA-Seq of liver of germ-free mice treated with 50 mg/kg/d N-methylserotonin; type: in vivo, germ-free C57BL/6J mice
# Description: RNA-Seq of liver and colonic tissue. Frozen tissue was broken into small pieces and ground into a very fine powder under liquid nitrogen using a mortar and pestle. A 25 mg aliquot of powdered tissue was then aliquoted into shearing matrix F (MP Bio) pre-chilled in liquid nitrogen; 0.5 mL of buffer LBP (Takara) was added immediately and the mixture was placed on a 4° C. cold block. Samples were then disrupted (Biospec bead beater; 2 minutes). The remaining steps in the RNA isolation procedure were performed using a Takara Nucleospin RNA Plus kit. […] Libraries were sequenced using an Illumina Hi-Seq instrument (paired end 75 nucleotide reads; 1.43×10^7±3.74×10^6 reads/liver sample, and 3.27×10^7±1.23×10^6 reads/colon sample). Reads were aligned to the Mus musculus GRCm39 genome assembly with STAR version 2.7.0d. Gene count data were generated from the number of uniquely aligned reads (featureCounts Subread version 1.6.2a). The R package DESEQ2 was used to perform differential gene expression analysis; results were filtered based on an adjusted Benjamini and Hochberg FDR p-value<0.05. Gene set enrichment analysis was carried out using ClusterProfiler with an adjusted p-value cut-off of <0.05 and minimum gene-set size of 3; over-representation was carried out using a loge fold-change cut-off of >1.
# Per2 promotes glycogen synthesis. Moreover, genetically engineered disruption of Per3 is associated with resistance to leptin with resulting weight gain, while its deletion directly leads to increased adipogenesis. […] Nfil3 serves as an important link between the gut microbiota, intestinal epithelial lipid metabolism and body composition. […] Moreover, genetic ablation of Nfil3 attenuates high fat diet-induced obesity in mice.
# [1] = Human studies with pea and orange fiber snack prototypes: fecal N-methylserotonin and serotonin levels; type: in vivo
# Description: Human studies with pea and orange fiber snack prototypes. Two separate open-label, single group assignment studies were performed involving members of the Missouri Adolescent Female Twin Study (MOAFTS) cohort who were age 31-45 years at the time of enrollment. The first study with the pea fiber snack was performed between April and August 2017, while the second study with the orange fiber snack was conducted between August and December 2017. All participants provided written informed consent and the studies were approved by the Washington University Institutional Review Board (IRB ID #201611122). (ClinicalTrials.gov NCT03078283).
# The design of the two studies were identical except for the fiber snack supplement used and the number of participants in each study. Individuals who were pregnant or trying to get pregnant, had inflammatory bowel disease, gastrointestinal cancer, hepatitis, HIV, renal failure, or allergies to dairy, eggs, fish, crustacean shellfish, tree nuts, sesame seeds, peanuts, wheat, gluten, soybeans, celery, or mustard were excluded from the study. In Study 1, four twin pairs were concordant for obesity (BMI>30 kg/m2) while five pairs were discordant with one member being obese and the other non-obese (n=18 participants, […] (mean±SD); Table S8B). Study 2 involved 24 participants: 12 dizygotic twin pairs [37±2.9 years (mean±SD)], nine of whom had participated in the pea fiber study; for these nine pairs, the interval between cessation of pea fiber snack consumption and initiation of orange fiber consumption ranged from 50 to 106 days [84+26 days (mean±SD)]. Participants consumed their normal, unrestricted diet for the first two weeks of the study (pre-intervention phase). At the beginning of week three, they supplemented their diets with one 35 g fiber snack serving a day for one week, then two 35 g snack servings a day the following week, and thereafter, three 35 g snacks per day for four weeks (weeks 5-8) at breakfast, lunch and dinner. No attempt was made to adjust the diets of participants other than supplementation with the fiber snack. Snack prototypes were manufactured by Mondeldz International, Inc. (see Table S8A for their composition), which participants received in weekly shipments from the study center. The pea fiber snacks were in the form of rotary biscuits (6.7 g total fiber/35 g snack) or extruded bars (8.1 g fiber/35 g snack) with participants having the option to alternate between them. The orange fiber snacks were all in the form of extruded bars (10.2 g total fiber/35 g snack). Compliance was monitored throughout by the study coordinator through weekly phone calls. The primary outcomes for each study were the effects of the respective prototypes on gut microbial community structure and function.
# Fecal samples were collected by participants in small medically approved collection containers. Each fecal sample was frozen immediately at −20° C. and temporarily stored in dedicated freezers provided to participants at the beginning of the study. Within 12-48 hours after collection, all samples were shipped, via overnight delivery, in an insulated container containing frozen gel packs, to a biospecimen repository located in Washington University in St. Louis and overseen by one of the authors (A.C.H.). Once received, samples were stored at −80° C. until processing for LC-QqQ-MS analysis of N-methylserotonin levels and culture-independent characterization of ASV and CAZyme gene abundances.
# Measurement of fecal N-methylserotonin levels—Each fecal sample was homogenized with a porcelain mortar (4 L) and pestle while submerged in liquid nitrogen; multiple 500 mg aliquots of the pulverized frozen material were stored at −80° C. N-methylserotonin was quantified using the same protocol that was employed for mouse fecal samples (as described herein elsewhere).
# N-methylserotonin levels and microbiome CAZyme gene abundances in humans consuming fiber snack prototypes. […]
# 5-Htr7 = 5-Htr7 (Homo sapiens, UniProt P34969); details: in vitro studies; cited from earlier work
# 5-Htr7, sequence (P34969 whole entry): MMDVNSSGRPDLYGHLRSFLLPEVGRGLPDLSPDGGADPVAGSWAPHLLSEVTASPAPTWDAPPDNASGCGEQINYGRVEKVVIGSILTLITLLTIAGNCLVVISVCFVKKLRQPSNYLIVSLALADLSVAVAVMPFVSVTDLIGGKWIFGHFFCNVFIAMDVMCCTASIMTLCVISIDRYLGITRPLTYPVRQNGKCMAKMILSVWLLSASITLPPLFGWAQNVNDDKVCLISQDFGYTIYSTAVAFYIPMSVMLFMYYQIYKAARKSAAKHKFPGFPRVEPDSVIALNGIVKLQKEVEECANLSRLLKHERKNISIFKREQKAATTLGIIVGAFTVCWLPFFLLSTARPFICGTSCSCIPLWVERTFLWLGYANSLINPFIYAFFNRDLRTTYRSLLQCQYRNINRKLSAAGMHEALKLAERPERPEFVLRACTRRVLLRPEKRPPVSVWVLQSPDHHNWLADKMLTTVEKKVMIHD
smiles,measurement,setting,value
CNCCc1c[nH]c2ccc(O)cc12 [N-methylserotonin],hepatic levels of Nfil3 mRNA,liver gene expression; 50 mg/kg/d vs untreated,statistically significantly decreased
same,liver expression of Arntl and Clock,liver gene expression; 50 mg/kg/d vs untreated,significantly decreased expression
same,"liver expression of Per2, Per3, and Nr1d2",liver gene expression; 50 mg/kg/d vs untreated,significant increases in expression
same,number of genes with statistically significant differences in expression in liver,"liver gene expression; 50 mg/kg/d vs untreated, FDR adjusted p<0.05",716 genes
same,"log2 fold-change, 0610005C13Rik (Entrez 71661)",liver gene expression; upregulated gene in liver: 0610005C13Rik,0.39
same,"log2 fold-change, 2810013P06Rik (Entrez 100503178)",liver gene expression; upregulated gene in liver: 2810013P06Rik,0.57
same,"log2 fold-change, 4930523C07Rik (Entrez 67647)",liver gene expression; upregulated gene in liver: 4930523C07Rik,0.33
same,"log2 fold-change, Arl13b (Entrez 68146)",liver gene expression; upregulated gene in liver: Arl13b,0.37
same,"log2 fold-change, Ccne2 (Entrez 12448)",liver gene expression; upregulated gene in liver: Ccne2,0.70
same,"log2 fold-change, Clic1 (Entrez 114584)",liver gene expression; upregulated gene in liver: Clic1,0.35
same,"log2 fold-change, Crebrf (Entrez 77128)",liver gene expression; upregulated gene in liver: Crebrf,0.32
same,"log2 fold-change, Dixdc1 (Entrez 330938)",liver gene expression; upregulated gene in liver: Dixdc1,0.32
same,"log2 fold-change, Fam50a (Entrez 108160)",liver gene expression; upregulated gene in liver: Fam50a,0.41
same,"log2 fold-change, Fam126b (Entrez 213056)",liver gene expression; upregulated gene in liver: Fam126b,0.31
same,"log2 fold-change, Hebp1 (Entrez 15199)",liver gene expression; upregulated gene in liver: Hebp1,0.38
same,"log2 fold-change, Ihh (Entrez 16147)",liver gene expression; upregulated gene in liver: Ihh,0.74
same,"log2 fold-change, Kyat1 (Entrez 70266)",liver gene expression; upregulated gene in liver: Kyat1,0.24
same,"log2 fold-change, Map1lc3b (Entrez 67443)",liver gene expression; upregulated gene in liver: Map1lc3b,0.28
same,"log2 fold-change, Mbtd1 (Entrez 103537)",liver gene expression; upregulated gene in liver: Mbtd1,0.48
same,"log2 fold-change, Mxi1 (Entrez 17859)",liver gene expression; upregulated gene in liver: Mxi1,0.29
same,"log2 fold-change, Pdcd4 (Entrez 18569)",liver gene expression; upregulated gene in liver: Pdcd4,0.36
same,"log2 fold-change, Pnldc1 (Entrez 240023)",liver gene expression; upregulated gene in liver: Pnldc1,0.83
same,"log2 fold-change, Prkag2 (Entrez 108099)",liver gene expression; upregulated gene in liver: Prkag2,0.36
same,"log2 fold-change, Rcl1 (Entrez 59028)",liver gene expression; upregulated gene in liver: Rcl1,0.28
same,"log2 fold-change, Rps15 (Entrez 20054)",liver gene expression; upregulated gene in liver: Rps15,0.38
same,"log2 fold-change, Serpina7 (Entrez 331535)",liver gene expression; upregulated gene in liver: Serpina7,0.41
same,"log2 fold-change, Smarcd2 (Entrez 83796)",liver gene expression; upregulated gene in liver: Smarcd2,0.27
same,"log2 fold-change, Syne3 (Entrez 212073)","liver gene expression; upregulated gene in liver: Syne3, treated vs untreated germ-free mice",0.57
same,"log2 fold-change, Tbc1d10a (Entrez 103724)",liver gene expression; upregulated gene in liver: Tbc1d10a,0.61
same,"log2 fold-change, Tedc2 (Entrez 72016)",liver gene expression; upregulated gene in liver: Tedc2,0.43
same,"log2 fold-change, Ube2b (Entrez 22210)",liver gene expression; upregulated gene in liver: Ube2b,0.41
same,"log2 fold-change, Uchl5 (Entrez 56207)",liver gene expression; upregulated gene in liver: Uchl5,0.34
same,"log2 fold-change, Zc3h6 (Entrez 78751)",liver gene expression; upregulated gene in liver: Zc3h6,0.63
same,"log2 fold-change, Zfp64 (Entrez 22722)",liver gene expression; upregulated gene in liver: Zfp64,0.41
same,"log2 fold-change, Zfp960 (Entrez 449000)",liver gene expression; upregulated gene in liver: Zfp960,0.60
same,fecal samples in which N-methylserotonin was undetectable,"[1]; 36 samples, pea fiber snack prototype, weeks 3 and 5",87%
same,fecal samples in which N-methylserotonin was present,"[1]; 48 samples, participants consuming the orange fiber snack prototype",98%
same,fecal N-methylserotonin concentration,"[1]; orange fiber snacks at maximal dose (3 snacks/day), mean±SD",72.5 ± 38.4 µM
same,fecal N-methylserotonin (undetectable),"[1]; pea fiber snack prototype, 87% of 36 samples",< 0.05 µg/g
same,binding,5-Htr7,binds
